Entries after “also recorded” stand apart in the source; their conditions may differ. Read-outs that look alike come from different tables or passages of the source.
Legend:
NPCs [1] = test: Culture of fetal kidney of single allele knock-in (heterozygous) mice with CID and/or AT406; type: cell-based, mouse
NPCs [2] = test: Subcutaneous administration to homozygous neonatal mice; type: in vivo, mouse
NPCs [3] = test: Administration to heterozygous neonatal mice, CID alone or combined with AT406; type: in vivo, mouse
nephron progenitor cells = test: Kidney organoid from nephron progenitor cells of Six2-iCaspase9-tdTomato mouse, CID administration; type: cell-based; conditions: with CID administration
Procedure: Nephron progenitor cells were isolated from the Six2-iCaspase9-tdTomato mouse prepared in Experimental Example 1, and a kidney organoid was prepared by three-dimensional culture. AP20187 (hereinafter, referred to as CID) was administered to the kidney organoid.

glomeruli = test: Nephron replacement: rat renal progenitor cells injected into homozygous fetal kidney, CID-added culture medium, then transplanted into immunodeficient mice; type: in vivo, mouse; conditions: rat RPCs injected, day 14 after transplant into immunodeficient mice
Procedure: It was verified whether or not the replacement of nephron could be induced by transplanting the exogenous NPC at the same time as the removal of the NPC of the fetal kidney (see FIG. 20). In a case where renal progenitor cells (RPCs) of rats were injected into a homozygous fetal kidney and cultured in a CID-added culture medium, it was confirmed that at the time point of day 4, the renal progenitor cells adhered to the ureteral bud of the host and formed a chimeric cap mesenchyme (see FIG. 21). In addition, in a case where the cells were transplanted into immunodeficient mice after the cell injection and allowed to develop in vivo, it was confirmed that at the time point of day 14, the rat-derived cells differentiated into glomeruli and renal tubules, and approximately 80% of the glomeruli were replaced with rat-derived cells. A rat distal tubule connected to the collecting duct derived from the fetal mouse kidney was also confirmed (see FIG. 22).

[4] = test system: Six2-positive nephron progenitor cells; test: Organ culture on Transwell of E11 fetal kidney of Six2-iCaspase9-tdTomato mouse with CID in medium; type: cell-based; conditions: for Expression of tdTomato fluorescence in nephron progenitor cells: second day after administration
Procedure: The kidney was excised from an E11 fetus of the Six2-iCaspase9-tdTomato mouse prepared in Experimental Example 1, and organ culture was performed on a Transwell. In the group in which AP20187 (CID) was administered to the culture medium, the expression of tdTomato fluorescence in nephron progenitor cells was reduced on the second day after administration (see FIG. 4).

NPCs [5] = test: Culture of kidneys of E13.5 fetuses of both allele knock-in (homozygous) mice with CID; type: cell-based, mouse; conditions: 100 nM of CID, homozygous E13.5 fetal kidney culture
Procedure: In a case where the kidneys of E13.5 fetuses of both allele knock-in (homozygous) mice were collected, CID was added thereto, and the kidneys were cultured, it was confirmed that 90% or more of NPCs were removed by adding 100 nM of CID (see FIG. 10).

NPCs [6] = test: Intraperitoneal administration to pregnant dam carrying homozygous fetuses; type: in vivo, mouse
From the text: The CID was intraperitoneally administered to a pregnant dam carrying homozygous fetuses (see FIG. 15). As a result, it was confirmed that the kidney size of the neonates (PO) was reduced and the cap mesenchyme structure, which constitutes the nephrogenic niche formed by NPCs, was disrupted (see FIG. 16). […] Furthermore, a decrease in the number of glomeruli was also confirmed (see FIG. 18).

[7] = test system: Six2-positive nephron progenitor cells; test: Intraperitoneal administration to neonatal Six2-iCaspase9-tdTomato mice, kidneys collected 48 hours later; type: in vivo, mouse
Procedure: AP20187 (CID) was intraperitoneally administered to neonatal Six2-iCaspase9-tdTomato mice prepared in Experimental Example 1, and the […] mouse kidneys were collected 48 hours later.

[8] = test system: Six2-positive nephron progenitor cells; test: TUNEL staining of organ-cultured E13 fetal kidney of Six2-iCaspase9-tdTomato mouse; type: cell-based; conditions: 100 nM CID, 12 hours after administration
Procedure: The kidney was excised from an E13 fetus of the Six2-iCaspase9-tdTomato mouse prepared in Experimental Example 1, and organ culture was performed on a Transwell. Apoptosis was evaluated by TUNEL staining after collection at 12 and 18 hours following the administration of 100 nM CID to the culture medium.

[9] = administration at E13.5, animal at 1 month of age
[10] = intraperitoneal to pregnant dam, homozygous fetuses

CN[C@@H](C)C(=O)N[C@H]1CN(C(=O)CC(C)C)CC[C@H]2CC[C@@H](C(=O)NC(c3ccccc3)c3ccccc3)N2C1=O [AT406]
NPC removal (NPCs [1]; single administration of AT406, heterozygous fetal kidney culture): NPC removal did not occur

CC[C@H](C(=O)N1CCCC[C@H]1C(=O)O[C@H](CCc1ccc(OC)c(OC)c1)c1cccc(OCC(=O)NCC(CNC(=O)COc2cccc([C@@H](CCc3ccc(OC)c(OC)c3)OC(=O)[C@@H]3CCCCN3C(=O)[C@@H](CC)c3cc(OC)c(OC)c(OC)c3)c2)CN(C)C)c1)c1cc(OC)c(OC)c(OC)c1 [CID, AP20187]
NPC removal (NPCs [2]): NPC removal was confirmed | NPC removal (NPCs [3]): NPC removal does not occur | Apoptosis of nephron progenitor cells (immunostained image) (nephron progenitor cells): subjected to apoptosis; also recorded: Induced cell death of nephron progenitor cells was observed | Glomeruli replaced with rat-derived cells (glomeruli): approximately 80% | Removal of Six2-positive nephron progenitor cells (immunostaining) ([4]; day 3): removal of Six2-positive nephron progenitor cells was confirmed | Expression of tdTomato fluorescence in nephron progenitor cells [4]: removal of nephron progenitor cells | Expression of tdTomato fluorescence in nephron progenitor cells ([4]; listed as AP20187): reduced | NPCs removed (NPCs [5]): ≥ 90% | Survival of animals after birth (NPCs [6]; administration at E11.5): died due to severe renal failure | Survival of animals after birth (NPCs [6]; administration at E13.5): survival of animals was confirmed | Serum urea nitrogen (BUN) compared with the control (NPCs [6]; [9]): significantly increased | Urinary albumin-to-creatinine ratio (ACR) compared with the control (NPCs [6]; [9]): significantly increased | Cap mesenchyme structure (nephrogenic niche formed by NPCs) (NPCs [6]; [10]): disrupted | Kidney size of the neonates (P0) (NPCs [6]; [10]): reduced | NPCs by immunostaining (NPCs [6]; [10]): disappearance of the NPCs was confirmed | Number of glomeruli (NPCs [6]; [10]): decrease | NPC removal (NPCs [1]; 100 nM of CID alone, heterozygous fetal kidney culture): NPC removal was not confirmed | Nephron progenitor cell marker Six2 (immunostaining) in kidney [7]: disappeared; also recorded: removal of Six2-positive nephron progenitor cells in the neonatal kidney was observed | Nephron progenitor cells (red, tdTomato fluorescence) in kidney [7]: disappeared due to apoptosis | Nephron progenitor cells (red, tdTomato fluorescence) in kidney ([7]; listed as AP20187): removal of Six2-positive nephron progenitor cells in the neonatal kidney was observed | Apoptosis by TUNEL staining, co-localization with Six2-positive nephron progenitor cells [8]: TUNEL positivity was observed

Source: patent US20260283124A1, “NON-HUMAN ANIMAL, KIT, AND METHOD FOR PRODUCING REPLACEMENT ORGAN” (THE JIKEI UNIVERSITY, priority 2023, published 2026)
